Structures are written as SMILES.

Assay [1] concerns microdissected hair follicles from human scalp. Put plainly: Prophylactic assay: pre-treatment before IL-12+IL-18, MHC class I and II levels. The assay is classed as cell-based. Here is the method: To address the role of IL-12 in AA pathobiology and its potential as a therapeutic target, microdissected hair follicles from human scalp were cultured in the presence of IL-12 (3 ng/mL) and IL-18 (20 ng/mL) and in the presence or absence of a selective allosteric TYK2 inhibitor, the compound of Formula (II) (300 nM). IFNγ (75 UI/mL) was used as a positive control to induce immune privilege (IP) collapse, and tofacitinib was used as a positive control for blocking IFNγ signaling. Hair follicle immune privilege (HF-IP) was assessed by quantitative immunohistomorphometry of MHC class I, of MHC class II, and of MHC class chain-related protein A and MHC class chain-related protein B (MICA/B).
Hair follicles were pre-treated with the compound having the structure of Formula (II) (denoted “BMS” in the figures), followed by the addition of IL-12 and IL-18, in a prophylactic assay. Tofacitinib was used as a control, for comparison. For this assay, each group included 19-40 hair follicles, obtained from 3-5 independent healthy donors. The groups were treated as follows: with vehicle, with the compound of Formula (II) (300 nM), or with tofacitinib (400 nM) for 5-6 days; on day 2 of culture, vehicle, or IL-12 (3 ng/ml) and IL-18 (20 ng/mL) were added. Levels of MHC class I and of MHC class II were assessed as described above, and FIGS. 17-22 provide the results. The graphs in FIGS. 17-20 show mean±SEM and results of the Dunn's multiple comparison test (*p<0.05; **p<0.01; ****p<0.0001). FIGS. 21 and 22 show staining of MHC-I and MHC-II, respectively, in hair follicles (scale bar=100 μm).

For assay [2] the test system is unchanged. The experiment in a line: Prophylactic assay: pre-treatment before IL-12+IL-18, CD3+ T cell and CD56+ NK cell quantification. The assay is classed as cell-based. Conditions: pre-treatment 300 nM, 5-6 days; IL-12+IL-18 added on day 2. As to the method:
(§1) Resident immune cell populations were assessed by quantification of CD3-positive cells and of CD56-positive cells. Gene expression of treated hair follicles was assessed using whole transcriptome analysis. IFNγ production was quantified by enzyme-linked immunosorbent assay (R&D systems). IL-12RB2-expressing cells were evaluated in healthy donors, acute AA patients, and chronic AA patients using immunohistomorphometry.
The effect of pre-treatment with the compound of Formula (II) on T cell and NK cell expansion following IL-12 and IL-18 stimulation was also examined. 22-40 hair follicles, obtained from 4-5 independent healthy donors, were incubated with vehicle, with the compound of Formula (II) (300 nM), or with tofacitinib (400 nM) for 5-6 days. On day 2 of culture, vehicle, or IL-12 (3 ng/ml) and IL-18 (20 ng/mL) were added. Resident immune cell populations were assessed by quantification of CD3-positive cells and of CD56-positive cells. FIGS. 23-27 provide the results. The graphs in FIGS. 23-26 show mean±SEM and results of the Dunn's multiple comparison test (*p<0.05; ***p<0.001). […] Pre-treatment with the compound of Formula (II) prevented an elevation of CD3+ T cell frequency and of CD56+ NK cell frequency, consistent with the results above.

Assay [3] has the same test system. Put plainly: Therapeutic assay: compound added after IL-12+IL-18-induced immune privilege collapse, MHC class I and II expression. The assay is classed as cell-based. An excerpt:
The above assays were adapted to investigate whether TYK2 inhibition can inhibit ongoing IL-12+IL-18-mediated hair follicle immune privilege collapse, and thus whether TYK2 inhibition is a viable therapeutic strategy for treating alopecia areata. In these assays, immune privilege collapse was first induced by treatment with IL-12+IL-18, followed by the addition of the compound of Formula (II).
To assess whether TYK2 inhibition could restore hair follicle immune privilege, 21-31 hair follicles, obtained from 3-4 independent healthy donors, were cultured with vehicle, or with IL-12 (3 ng/mL) and IL-18 (20 ng/ml), for 5-6 days. On day 2 of culture, the compound of Formula (II) (300 nM) or tofacitinib (400 nM) was added until day 5-6. MHC class I expression and MHC class II expression were measured, as was done previously. The graphs in FIGS. 28-31 show mean±SEM, with p-values from the Dunn's multiple comparison test (*p<0.05; **p<0.01; ***p<0.001; ****p<0.0001). FIGS. 32 and 33 show staining of MHC-I and MHC-II, respectively, in hair follicles (scale bar=100 μm). […] As discussed above, MHC class I and II are markers of immune privilege collapse.

For assay [4] the test system is unchanged. The experiment in a line: Therapeutic assay: compound added after IL-12+IL-18, T cell and NK cell expansion (CD3/CD56 immunostaining). The assay is classed as cell-based. The conditions noted are these: 300 nM added on day 2 of IL-12+IL-18 culture. As to the method: To assess whether TYK2 inhibition can block ongoing T cell and NK cell expansion, hair follicles were first incubated with vehicle, or with IL-12+IL-18, followed by the addition of the compound of Formula (II) or of tofacitinib. Specifically, 24-33 hair follicles, obtained from 3-4 independent healthy donors, were treated with vehicle, or with IL-12 (3 ng/ml) and IL-18 (20 ng/ml), for 5-6 days. On day 2 of culture, the compound of Formula (II) (300 nM) or tofacitinib (400 nM) was added. T cell expansion and NK cell expansion were assessed by immunostaining for CD3 (T cells) or CD56 (NK cells). The graphs in FIGS. 34-37 show mean±SEM, with p-values from the Dunn's multiple comparison test (*p<0.05; **p<0.01; ***p<0.001; ****p<0.0001). FIG. 38 provides images of staining for CD3 and CD56 in hair follicles (scale bar=50 μm).

Assay [5] concerns ex vivo cultured hair follicles. Put plainly: IFNγ secretion into the medium of ex vivo cultured hair follicles treated with IL-12+IL-18 (ELISA; prophylactic and therapeutic assays). The assay is classed as cell-based, human. The conditions noted are these: for IFNγ release into the culture medium: hair follicles treated with IL-12+IL-18, assay format not given. As to the method:
as §1
The effect of TYK2 inhibition on IFNγ production by hair follicles was also assessed. Specifically, two assays were performed to examine how TYK2 inhibition affects IFNγ secretion into the medium of ex vivo cultured hair follicles treated with IL-12+IL-18. In the prophylactic assay, hair follicles were pre-treated with the compound of Formula (II) or with tofacitinib, and then were cultured in the presence of IL-12+IL-18, after which IFNγ in the culture medium was measured. In the therapeutic assay, hair follicles were initially treated with IL-12±IL-18; then the compound of Formula (II) or tofacitinib was added and the culture continued, after which IFNγ in the culture medium was measured. The data in FIGS. 39 and 40 are based on the amount of IFNγ measured in pooled culture medium from n=8 hair follicles per group, obtained from 1-2 healthy donors. The graphs show mean±SEM from technical duplicates.
For orientation: ELISA stands for enzyme-linked immunosorbent assay.

The mark [6] stands for this setting: 300 nM for 5-6 days, IL-12 3 ng/mL and IL-18 20 ng/mL added on day 2.
Where [7] appears, read: 300 nM added on day 2 until day 5-6 of IL-12+IL-18 culture.
The mark [8] stands for this setting: 400 nM added on day 2 until day 5-6 of IL-12+IL-18 culture.

Regarding `[2H]C([2H])([2H])NC(=O)c1cnc(NC(=O)C2CC2)cc1Nc1cccc(-c2ncc(F)cn2)c1OC` [compound of Formula (II)], in assay [1] (setting [6]), the “IL-12+IL-18-mediated upregulation of MHC class I in the outer root sheath” value was “prevented” and the “IL-12+IL-18-mediated upregulation of MHC class II in the outer root sheath” value was “prevented”. Further, the “effect on MHC class I and II upregulation compared with tofacitinib” value in assay [1] (compound 300 nM versus tofacitinib 400 nM, prophylactic) is reported as “greater than the effect observed with tofacitinib”. For the same molecule, the “IL-12 and IL-18-induced immune privilege collapse of hair follicles” value in assay [1] (pre-treatment, 300 nM) was “prevented”. In assay [2], the “elevation of CD3+ T cell frequency” value is “prevented” and the “elevation of CD56+ NK cell frequency” value was “prevented”. In addition, in assay [3] (setting [7]), the “IL-12+IL-18-induced expression of MHC class I” value is “significantly reduced” and the “IL-12+IL-18-induced expression of MHC class II” value is “significantly reduced”. In assay [4], the “NK cell expansion induced by IL-12 and IL-18 (hair follicle epithelium and mesenchyme)” value is “reversed”; the “T cell expansion induced by IL-12 and IL-18 (hair follicle epithelium and mesenchyme)” value is “reversed”. In addition, in assay [5], the “IFNγ release into the culture medium” value is “inhibiting IFNγ release”.
Regarding `C[C@@H]1CCN(C(=O)CC#N)C[C@@H]1N(C)c1ncnc2[nH]ccc12` [tofacitinib, reference compound], in assay [3] (setting [8]), the “IL-12+IL-18-induced expression of MHC class I” value is “significantly reduced” and the “IL-12+IL-18-induced expression of MHC class II” value was “significantly reduced”. Moreover, the “IFNγ release into the culture medium” value in assay [5] is recorded as “did not decrease”. Also, the “restoration of IFNγ secretion to baseline” value in assay [5] (therapeutic assay: IL-12+IL-18 first, then compound added) is on record as “such restoration was not observed”.

The record behind these values is patent publication US20240390372A1, “METHODS OF TREATING HAIR-LOSS DISORDERS WITH TYK2 INHIBITORS” (Bristol-Myers Squibb Company, priority 2021, published 2024).
